Patent US20080161249A1, “Use of Novel Antibacterial Compounds” (SMITHKLINE BEECHAM CORPORATION, priority 2004, published 2008)
≈ marks a conversion by molar mass, not a printed value. Like-named read-outs stand apart in the source and are kept apart here.

Assays:
[1] = system: S. aureus strain PK1; assay: MIC against S. aureus strain PK1, alone and in combination; format: cell-based, Staphylococcus aureus; conditions: for MIC: Staphylococcus aureus
From the text: (§1) Subinhibitory Concentrations of PDF Inhibitors Decrease the MICs of Macrolides against Representative S. aureus Strains
(§2) Subinhibitory Concentrations of Macrolides Decrease the MICs of PDF Inhibitors against Representative S. aureus Strains

[2] = system: S. aureus strain RN4220; assay: MIC against S. aureus strain RN4220, alone and in combination; format: cell-based, Staphylococcus aureus; conditions: for MIC: Staphylococcus aureus
[3] = system: H. influenzae Q1; assay: MIC against H. influenzae Q1, alone and with subinhibitory concentrations of a second agent; format: cell-based, Haemophilus influenzae;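 further: combinations paired PDF inhibitors with macrolides, one class added below its own MIC to test whether the MIC of the other class dropped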
[4] = system: representative S. aureus strains; assay: MIC against representative S. aureus strains, summary over strains; format: cell-based, Staphylococcus aureus
From the text: as §1, §2

[5] = system: S. aureus strain Smith; assay: MIC against S. aureus strain Smith, alone and in combination; format: cell-based, Staphylococcus aureus; conditions: for MIC: Staphylococcus aureus
[6] = system: S. aureus WCUH29; assay: MIC against S. aureus WCUH29, alone and with subinhibitory concentrations of a second agent; format: cell-based, Staphylococcus aureus; conditions: for MIC: Staphylococcus aureus, WCUH29, S. aureus WCUH29
[7] = system: S. aureus strain Oxford; assay: MIC against S. aureus strain Oxford, alone and in combination; format: cell-based, Staphylococcus aureus; conditions: for MIC: Staphylococcus aureus
From the text: as §1, §2

[8] = single agent, read-out: MIC, Compound (1a) alone
[9] = with ¼ MIC of Tylosin, read-out: MIC, Compound (1a) with ¼ MIC of Tylosin
[10] = with ½ MIC of Tylosin, read-out: MIC, Compound (1a) with ½ MIC of Tylosin
[11] = H. influenzae Q1, +0.25 ug/m Azithromycin
[12] = H. influenzae Q1, +0.5 ug/mL Azithromycin
[13] = S. aureus, text summary of Example 4
[14] = no second agent, read-out: MIC, single agent
[15] = macrolide alone, read-out: MIC, −Compound (1a)
[16] = H. influenzae Q1, +0.5 ug/mL Compound (1a)
[17] = H. influenzae Q1, +1 ug/mL Compound (1a)
[18] = S. aureus WCUH29, +0.5 ug/mL Compound (1a)
[19] = S. aureus WCUH29, +1 ug/mL Compound (1a)

Compound: CCCCC[C@H](CN(O)C=O)C(=O)NNc1nccc(C(F)(F)F)n1 [Compound (1a), N-hydroxy-N-{(R)-2-[N′-(4-trifluoromethyl-pyrimidin-2-yl)-hydrazinocarbonyl]-heptyl}-formamide]
- MIC [1, 8]: 0.5 µg/mL
- MIC [1, 9]: 0.06 µg/mL
- MIC [1, 10]: 0.016 µg/mL
- fold decrease MIC, Compound (1a) with ¼ MIC of Tylosin ([1]; with ¼ MIC of Tylosin): [8] fold
- fold decrease MIC, Compound (1a) with ½ MIC of Tylosin ([1]; with ½ MIC of Tylosin): [32] fold
- MIC [2, 8]: 4 µg/mL
- MIC [2, 9]: 0.25 µg/mL
- MIC [2, 10]: 0.03 µg/mL
- fold decrease MIC, Compound (1a) with ¼ MIC of Tylosin ([2]; with ¼ MIC of Tylosin): [16] fold
- fold decrease MIC, Compound (1a) with ½ MIC of Tylosin ([2]; with ½ MIC of Tylosin): [128] fold
- MIC, antibiotic with 0.25 ug/m (¼ MIC) of Azithromycin [3, 11]: 1 µg/mL
- fold decrease MIC, antibiotic with 0.25 ug/m (¼ MIC) of Azithromycin [3, 11]: [2] fold
- MIC, antibiotic with 0.5 ug/mL (½ MIC) of Azithromycin [3, 12]: 0.5 µg/mL
- fold decrease MIC, antibiotic with 0.5 ug/mL (½ MIC) of Azithromycin [3, 12]: [4] fold
- MIC, antibiotic alone ([3]; H. influenzae Q1, single agent (Example 8)): 2 µg/mL (≈ 5.5 µM)
- decrease of MIC by subinhibitory concentrations of tylosin ([4]; Example 6): 2-128 fold
- MIC [5, 8]: 4 µg/mL
- MIC [5, 9]: 0.5 µg/mL
- MIC [5, 10]: 0.125 µg/mL
- fold decrease MIC, Compound (1a) with ¼ MIC of Tylosin ([5]; with ¼ MIC of Tylosin): [8] fold
- fold decrease MIC, Compound (1a) with ½ MIC of Tylosin ([5]; with ½ MIC of Tylosin): [32] fold
- Compound (1a) fold decrease MIC ([6]; S. aureus WCUH29, +Azithromycin 0.25 μg/ml {¼ × MIC}): [4] fold
- Compound (1a) fold decrease MIC ([6]; S. aureus WCUH29, +Azithromycin 0.5 μg/ml {½ × MIC}): [8] fold
- Compound (1a) fold decrease MIC ([6]; S. aureus WCUH29, +Ciprofloxacin 0.06 μg/ml {¼ × MIC}): [0] fold
- Compound (1a) fold decrease MIC ([6]; S. aureus WCUH29, +Ciprofloxacin […] {½ × MIC}): [0] fold
- Compound (1a) fold decrease MIC ([6]; S. aureus WCUH29, +Erythromycin 0.06 μg/ml {¼ × MIC}): [4] fold
- Compound (1a) fold decrease MIC ([6]; S. aureus WCUH29, +Erythromycin […] {½ × MIC}): [8] fold
- Compound (1a) fold decrease MIC ([6]; S. aureus WCUH29, +Tylosin 0.25 μg/ml {¼ × MIC}): [4] fold
- Compound (1a) fold decrease MIC ([6]; S. aureus WCUH29, +Tylosin 0.5 μg/ml {½ × MIC}): [32] fold
- decrease of MIC by subinhibitory concentrations of azithromycin [6, 13]: 4-8 fold
- decrease of MIC by subinhibitory concentrations of erythromycin [6, 13]: 4-8 fold
- decrease of MIC by subinhibitory concentrations of tylosin [6, 13]: 4-32 fold
- effect of subinhibitory concentrations of ciprofloxacin on antibacterial potency [6, 13]: no effect
- MIC ([6]; +Azithromycin 0.25 μg/ml {¼ × MIC}, read-out: Compound (1a) MIC): 0.5 µg/mL (≈ 1.38 µM)
- MIC ([6]; +Azithromycin 0.5 μg/ml {½ × MIC}, read-out: Compound (1a) MIC): 0.25 µg/mL (≈ 0.688 µM)
- MIC ([6]; +Ciprofloxacin 0.06 μg/ml {¼ × MIC}, read-out: Compound (1a) MIC): 2 µg/mL (≈ 5.5 µM)
- MIC ([6]; +Ciprofloxacin […] {½ × MIC}, read-out: Compound (1a) MIC): 2 µg/mL (≈ 5.5 µM)
- MIC ([6]; +Erythromycin 0.06 μg/ml {¼ × MIC}, read-out: Compound (1a) MIC): 0.5 µg/mL (≈ 1.38 µM)
- MIC ([6]; +Erythromycin […] {½ × MIC}, read-out: Compound (1a) MIC): 0.25 µg/mL (≈ 0.688 µM)
- MIC ([6]; +Tylosin 0.25 μg/ml {¼ × MIC}, read-out: Compound (1a) MIC): 0.5 µg/mL (≈ 1.38 µM)
- MIC ([6]; +Tylosin 0.5 μg/ml {½ × MIC}, read-out: Compound (1a) MIC): 0.06 µg/mL (≈ 0.165 µM)
- MIC [6, 14]: 2 µg/mL (≈ 5.5 µM)
- MIC [7, 8]: 2 µg/mL
- MIC [7, 9]: 1 µg/mL
- MIC [7, 10]: 0.25 µg/mL
- fold decrease MIC, Compound (1a) with ¼ MIC of Tylosin ([7]; with ¼ MIC of Tylosin): [2] fold
- fold decrease MIC, Compound (1a) with ½ MIC of Tylosin ([7]; with ½ MIC of Tylosin): [8] fold

Compound: CC[C@H]1OC(=O)C[C@@H](O)[C@H](C)[C@@H](O[C@@H]2O[C@H](C)[C@@H](O[C@H]3C[C@@](C)(O)[C@@H](O)[C@H](C)O3)[C@H](N(C)C)[C@H]2O)[C@@H](CC=O)C[C@@H](C)C(=O)/C=C/C(C)=C/[C@@H]1CO[C@@H]1O[C@H](C)[C@@H](O)[C@@H](OC)[C@H]1OC [Tylosin, tylosin]
- MIC [1, 15]: 2 µg/mL
- MIC, +Compound (1a) [¼ × MIC] ([1]; with ¼ × MIC of Compound (1a)): 0.25 µg/mL
- fold decrease MIC, +Compound (1a) [¼ × MIC] ([1]; with ¼ × MIC of Compound (1a)): [8] fold
- MIC, +Compound (1a) [½ × MIC] ([1]; with ½ × MIC of Compound (1a)): 0.06 µg/mL
- fold decrease MIC, +Compound (1a) [½ × MIC] ([1]; with ½ × MIC of Compound (1a)): [32] fold
- MIC [2, 15]: 1 µg/mL
- fold decrease MIC, +Compound (1a) [¼ × MIC] ([2]; with ¼ × MIC of Compound (1a)): [8] fold
- MIC, +Compound (1a) [½ × MIC] ([2]; with ½ × MIC of Compound (1a)): 0.06 µg/mL
- fold decrease MIC, +Compound (1a) [½ × MIC] ([2]; with ½ × MIC of Compound (1a)): [16] fold
- MIC, antibiotic with 0.5 ug/mL (¼ MIC) of Compound (1a) [3, 16]: 8 µg/mL
- fold decrease MIC, antibiotic with 0.5 ug/mL (¼ MIC) of Compound (1a) [3, 16]: [2] fold
- MIC, antibiotic with 1 ug/mL (½ MIC) of Compound (1a) [3, 17]: 4 µg/mL
- fold decrease MIC, antibiotic with 1 ug/mL (½ MIC) of Compound (1a) [3, 17]: [4] fold
- MIC, antibiotic alone ([3]; H. influenzae Q1, single agent (Example 7)): 16 µg/mL (≈ 17.5 µM)
- decrease of MIC by subinhibitory concentrations of Compound (1a) ([3]; H. influenzae, text summary of Example 7): 2-4 fold
- decrease of MIC by subinhibitory concentrations of Compound (1a) ([4]; text summary of Example 5): 4-32 fold
- MIC [5, 15]: 1 µg/mL
- MIC, +Compound (1a) [¼ × MIC] ([5]; with ¼ × MIC of Compound (1a)): 0.25 µg/mL
- fold decrease MIC, +Compound (1a) [¼ × MIC] ([5]; with ¼ × MIC of Compound (1a)): [4] fold
- MIC, +Compound (1a) [½ × MIC] ([5]; with ½ × MIC of Compound (1a)): 0.125 µg/mL
- fold decrease MIC, +Compound (1a) [½ × MIC] ([5]; with ½ × MIC of Compound (1a)): [8] fold
- MIC, antibiotic with 0.5 ug/mL (¼ MIC) of Compound (1a) [6, 18]: 0.25 µg/mL
- fold decrease MIC, antibiotic with 0.5 ug/mL (¼ MIC) of Compound (1a) [6, 18]: [4] fold
- MIC, antibiotic with 1 ug/mL (½ MIC) of Compound (1a) [6, 19]: 0.125 µg/mL
- fold decrease MIC, antibiotic with 1 ug/mL (½ MIC) of Compound (1a) [6, 19]: [8] fold
- MIC, antibiotic alone ([6]; S. aureus WCUH29, single agent): 1 µg/mL (≈ 1.09 µM)
- decrease of MIC by subinhibitory concentrations of Compound (1a) ([6]; S. aureus, Example 3): 4-8 fold
- MIC [6, 14]: 1 µg/mL (≈ 1.09 µM)
- MIC [7, 15]: 0.5 µg/mL
- MIC, +Compound (1a) [¼ × MIC] ([7]; with ¼ × MIC of Compound (1a)): 0.06 µg/mL
- fold decrease MIC, +Compound (1a) [¼ × MIC] ([7]; with ¼ × MIC of Compound (1a)): [8] fold
- MIC, +Compound (1a) [½ × MIC] ([7]; with ½ × MIC of Compound (1a)): 0.03 µg/mL
- fold decrease MIC, +Compound (1a) [½ × MIC] ([7]; with ½ × MIC of Compound (1a)): [16] fold
